# Test results published in patent US20040014215A1, “Synchronised arabidopsis cell suspensions and uses thereof” (priority 2000, published 2004).
# What was measured:
# CDK-a = test: Northern expression analysis after aphidicolin synchronisation of MM1 (maximum signal = 100%); assay type: cell-based, Arabidopsis thaliana
# Protocol: (§1) was analysed following the expression level of known cell cycle regulated genes. Synchronisation was performed as described in Example 2A, with the exception that two 7-day old cultures of the weekly sub-cultured cell suspension (210 ml each) were combined. 40 ml of combined culture was transferred into 200 ml of fresh MSS-medium in each of 10 separate flasks. After incubation for 24 hrs under conditions as described in Example 1, in the presence of 4.16 μg/ml aphidicolin, cells from 5 pooled flasks were washed through a nylon net (mesh size 47 μm) and washed with 2 litre MSS medium and shaken vigorously to remove the aphidicolin. Cells were transferred into a 50 ml plastic tube, washed again with MSS medium and centrifuged at 2500 rpm for 1 min (1075 rcf). Cells were resuspended and combined with the cells from the other 5 flasks similarly washed in a total volume of 300 ml fresh MSS-medium. 30 ml of this cell suspension was then added to 200 ml fresh MSS-medium in each of 10 separate flasks.
# 1) 25 ml for Northern blot (transferred into 50 ml plastic tube, centrifuged at 2500 rpm for 1 min, the supernatant discarded, and the cell pellet shock-frozen in liquid nitrogen before storing in −80° C. freezer)
# Samples were collected at the time point indicated (time of removal of aphidicolin equals time point 0 hrs) and were analysed for expression of the following genes by Northern blot:
# CDK-a (also called Cdc2a/CDK2a: Accession no. ATCDC2AP)
# For each probe the maximum hybridisation signal obtained was defined as 100%.
# tobacco BY-2 cell line = conditions: BY-2, aphidicolin block; cited from earlier work
# [1] = system: Arabidopsis cell suspension culture MM1; test: Scaled-up aphidicolin (4.16 μg/ml, 24 hrs) synchronisation of MM1: LI and MI; assay type: cell-based, Arabidopsis thaliana
# Protocol: as §1
# For every time point a 30 ml sample was split into:
# 2) 5 ml for LI and Ml determination as described in Example 2A.
# A MI peak of 9.8% was observed, about 12 hrs after release from the aphidicolin block. Labelling index was also determined and reached a peak of 52%, 3 h after release.
# [2] = system: Arabidopsis cell suspension MM2d; test: Aphidicolin block/release of MM2d: mitotic index and labelling index; assay type: cell-based, Arabidopsis thaliana
# Protocol: This experiment was carried out as described for Example 1, except that cell line MM2d was used, and the culture conditions throughout the experiment were as described for MM2d in Example 1.
# Synchronisation was performed as described in Example 2A, with the exception that before adding aphidicolin, 20 ml of the weekly subcultured cell suspension was transferred into 100 ml fresh MSS-medium in each of 2 separate flasks and cultivated under conditions as described in Example 1 for MM2d. […] Samples were taken at the same time frame for flow cytometry to follow cell cycle transition.
# Samples were analysed by flow cytometry to determine the percentage of cells being in G1-, S- and G2M phase. The mitotic index (MI) and labelling index (LI) were independently determined (as described in Example 2A). Results are shown below in table II and in FIG. 1.
# Table II. Aphidicolin block/release of Arabidopsis cell suspension MM2d. Data are shown from analysis of samples obtained in the experiment described in Example 2B.
# [3] = system: Arabidopsis cell suspension culture; conditions: phosphate starvation 32 hours then aphidicolin, cited from earlier work
# [4] = 0 hrs after aphidicolin removal
# [5] = 2 hrs after aphidicolin removal
# [6] = 4 hrs after aphidicolin removal
# [7] = 6 hrs after aphidicolin removal
# [8] = 8 hrs after aphidicolin removal
# [9] = 10 hrs after aphidicolin removal
# [10] = 12 hrs after aphidicolin removal
# [11] = 14 hrs after aphidicolin removal
# [12] = 16 hrs after aphidicolin removal
# [13] = 18 hrs after aphidicolin removal
# [14] = 20 hrs after aphidicolin removal
# [15] = 22 hrs after aphidicolin removal
# [16] = 24 hrs after aphidicolin removal
# [17] = 26 hrs after aphidicolin removal
# [18] = 28 hrs after aphidicolin removal
# [19] = 30 hrs after aphidicolin removal
smiles,measurement,setting,value
C[C@@]1(CO)[C@H](O)CC[C@@]2(C)[C@H]1CC[C@H]1C[C@@H]3C[C@@]12CC[C@]3(O)CO [aphidicolin],CDK-a %,CDK-a; [4],17.71%
same,CDK-a Band intensity,CDK-a; [4],321
same,CDK-a %,CDK-a; [5],37.87%
same,CDK-a Band intensity,CDK-a; [5],687
same,CDK-a %,CDK-a; [6],45.09%
same,CDK-a Band intensity,CDK-a; [6],818
same,CDK-a %,CDK-a; [7],66.22%
same,CDK-a Band intensity,CDK-a; [7],1202
same,CDK-a %,CDK-a; [8],58.06%
same,CDK-a Band intensity,CDK-a; [8],1054
same,CDK-a %,CDK-a; [9],77.44%
same,CDK-a Band intensity,CDK-a; [9],1406
same,CDK-a %,CDK-a; [10],80.20%
same,CDK-a Band intensity,CDK-a; [10],1456
same,CDK-a %,CDK-a; [11],92.43%
same,CDK-a Band intensity,CDK-a; [11],1678
same,CDK-a %,CDK-a; [12],79.03%
same,CDK-a Band intensity,CDK-a; [12],1435
same,CDK-a %,CDK-a; [13],100.0%
same,CDK-a Band intensity,CDK-a; [13],1816
same,CDK-a %,CDK-a; [14],89.25%
same,CDK-a Band intensity,CDK-a; [14],1620
same,CDK-a %,CDK-a; [15],53.55%
same,CDK-a Band intensity,CDK-a; [15],972
same,CDK-a %,CDK-a; [16],34.25%
same,CDK-a Band intensity,CDK-a; [16],621
same,CDK-a %,CDK-a; [17],40.96%
same,CDK-a Band intensity,CDK-a; [17],743
same,CDK-a %,CDK-a; [18],36.32%
same,CDK-a Band intensity,CDK-a; [18],659
same,CDK-a %,CDK-a; [19],29.30%
same,CDK-a Band intensity,CDK-a; [19],532
same,mitotic index,tobacco BY-2 cell line,45-50%
same,Labelling index peak,[1]; 3 h after release,52%
same,MI peak,[1]; about 12 hrs after release from the aphidicolin block,9.8%
same,Labelling Index (%),[2]; 1 h after aphidicolin removal,19.41%
same,Mitotic index (%),[2]; 1 h after aphidicolin removal,0%
same,Labelling Index (%),[2]; 2 h after aphidicolin removal,35.47%
same,Mitotic index (%),[2]; 2 h after aphidicolin removal,0.2%
same,Labelling Index (%),[2]; 3 h after aphidicolin removal,69.46%
same,Mitotic index (%),[2]; 3 h after aphidicolin removal,0.4%
same,Labelling Index (%),[2]; 4 h after aphidicolin removal,66%
same,Mitotic index (%),[2]; 4 h after aphidicolin removal,0.6%
same,Labelling Index (%),[2]; 5 h after aphidicolin removal,39.22%
same,Mitotic index (%),[2]; 5 h after aphidicolin removal,1.21%
same,Labelling Index (%),[2]; 6 h after aphidicolin removal,16.05%
same,Mitotic index (%),[2]; 6 h after aphidicolin removal,0.92%
same,Labelling Index (%),[2]; 7 h after aphidicolin removal,13.27%
same,Mitotic index (%),[2]; 7 h after aphidicolin removal,0.71%
same,Labelling Index (%),[2]; 8 h after aphidicolin removal,9.6%
same,Mitotic index (%),[2]; 8 h after aphidicolin removal,1.87%
same,Labelling Index (%),[2]; 9 h after aphidicolin removal,8.23%
same,Mitotic index (%),[2]; 9 h after aphidicolin removal,2.41%
same,Labelling Index (%),[2]; 10 h after aphidicolin removal,9.23%
same,Mitotic index (%),[2]; 10 h after aphidicolin removal,6.09%
same,Labelling Index (%),[2]; 11 h after aphidicolin removal,4.6%
same,Mitotic index (%),[2]; 11 h after aphidicolin removal,6.7%
same,Labelling Index (%),[2]; 12 h after aphidicolin removal,1.46%
same,Mitotic index (%),[2]; 12 h after aphidicolin removal,10.72%
same,Labelling Index (%),[2]; 13 h after aphidicolin removal,2.78%
same,Mitotic index (%),[2]; 13 h after aphidicolin removal,11.06%
same,Labelling Index (%),[2]; 14 h after aphidicolin removal,3.61%
same,Mitotic index (%),[2]; 14 h after aphidicolin removal,10.99%
same,Labelling Index (%),[2]; 15 h after aphidicolin removal,2.73%
same,Mitotic index (%),[2]; 15 h after aphidicolin removal,6.74%
same,Labelling Index (%),[2]; 16 h after aphidicolin removal,2.28%
same,Mitotic index (%),[2]; 16 h after aphidicolin removal,5.79%
same,Labelling Index (%),[2]; 17 h after aphidicolin removal,1.96%
same,Mitotic index (%),[2]; 17 h after aphidicolin removal,4.49%
same,Labelling Index (%),[2]; 18 h after aphidicolin removal,3.3%
same,Mitotic index (%),[2]; 18 h after aphidicolin removal,4.01%
same,Labelling Index (%),[2]; 19 h after aphidicolin removal,7.62%
same,Mitotic index (%),[2]; 19 h after aphidicolin removal,2.38%
same,cells in S-phase,[3]; 2 h after release of block,50 to 60%
same,cells in G2 phase,[3]; after 8 h,50%
